Laboratory results reported in patent US12077537B2 (Gilead Sciences, Inc., priority 2020, dated 2024).

Tested on: HIV-IIIb
Test: Antiviral assay in MT4 cells
Type: cell-based
Conditions: Human immunodeficiency virus 1, MT4, 120 h; MT-4 cells mixed with HIV-IIIb at m.o.i. 0.003; 5 days at 37° C.; CellTiter-Glo luminescence; 50% decrease in signal, a measure of HIV-1 replication
Protocol: Antiviral Assay in MT4 Cells For the antiviral assay, 40 μL of a concentration required to achieve a final effective 1× test concentration of 3-fold serially diluted compound in culture medium with 10% FBS was added to each well of a 384-well plate (10 concentrations) in quadruplicate. MT-4 cells were next mixed with HIV-IIIb at an m.o.i of 0.003 for 1 hour, after which time 35 μL of virus/cell mixture (2000 cells) was immediately added to each well containing 40 μL of diluted compound. The plates were then incubated at 37° C. for 5 days. After 5 days of incubation, 25 μl of 2× concentrated CellTiter-Glom Reagent (catalog #G7571, Promega Biosciences, Inc., Madison, WI) was added to each well containing MT-4 cells. Cell lysis was carried out by incubating at room temperature for 10 min and then chemiluminescence was read.

Compound	EC50
CN(C)CCNc1nc2nc(C(Cc3cc(F)cc(F)c3)NC(=O)Cn3nc(C(F)F)c4c3C(F)(F)CCC4(F)F)c(-c3ccc(F)c(C#N)c3)cc2s1 (stereo not drawn) [Compound 21, N-(1-(6-(3-cyano-4-fluorophenyl)-2-((2-(dimethylamino)ethyl)amino)thiazolo[4,5-b]pyridin-5-yl)-2-(3,5-difluorophenyl)ethyl)-2-(3-(difluoromethyl)-4,4,7,7-tetrafluoro-4,5,6,7-tetrahydro-1H-indazol-1-yl)acetamide]	≥ 53200 nM
CC(C)(O)C#CC1(Cl)Nc2nc(C(Cc3cc(F)cc(F)c3)NC(=O)Cn3nc(C(F)F)c4c3C(F)(F)CCC4(F)F)c(-c3ccc(F)c(C(N)=O)c3)cc2S1 (stereo not drawn) [Compound 22, 5-(2-chloro-5-(1-(2-(3-(difluoromethyl)-4,4,7,7-tetrafluoro-4,5,6,7-tetrahydro-1H-indazol-1-yl)acetamido)-2-(3,5-difluorophenyl)ethyl)-2-(3-hydroxy-3-methylbut-1-yn-1-yl)-2,3-dihydrothiazolo[4,5-b]pyridin-6-yl)-2-fluorobenzamide]	184 nM
NC(=O)c1cc(-c2cc3sc(N4CCN(C5COC5)CC4)nc3nc2[C@H](Cc2cc(F)cc(F)c2)NC(=O)Cn2nc(C(F)(F)F)c3c2C(F)(F)[C@@H]2C[C@H]32)ccc1F [Compound 24, 5-(5-((S)-1-(2-((3bS,4aR)-5,5-difluoro-3-(trifluoromethyl)-3b,4,4a,5-tetrahydro-1H-cyclopropa[3,4]cyclopenta[1,2-c]pyrazol-1-yl)acetamido)-2-(3,5-difluorophenyl)ethyl)-2-(4-(oxetan-3-yl)piperazin-1-yl)thiazolo[4,5-b]pyridin-6-yl)-2-fluorobenzamide]	32.7 nM
NC(=O)c1cc(-c2cc3sc(N4CCN(c5cncnc5)CC4)nc3nc2[C@H](Cc2cc(F)cc(F)c2)NC(=O)Cn2nc(C(F)(F)F)c3c2C(F)(F)[C@@H]2C[C@H]32)ccc1F [Compound 25, 5-(5-((S)-1-(2-((3bS,4aR)-5,5-difluoro-3-(trifluoromethyl)-3b,4,4a,5-tetrahydro-1H-cyclopropa[3,4]cyclopenta[1,2-c]pyrazol-1-yl)acetamido)-2-(3,5-difluorophenyl)ethyl)-2-(4-(pyrimidin-5-yl)piperazin-1-yl)thiazolo[4,5-b]pyridin-6-yl)-2-fluorobenzamide]	111 nM
NC(=O)c1cc(-c2cc3sc(N4CCN(c5ccncc5)CC4)nc3nc2[C@H](Cc2cc(F)cc(F)c2)NC(=O)Cn2nc(C(F)(F)F)c3c2C(F)(F)[C@@H]2C[C@H]32)ccc1F [Compound 26, 5-(5-((S)-1-(2-((3bS,4aR)-5,5-difluoro-3-(trifluoromethyl)-3b,4,4a,5-tetrahydro-1H-cyclopropa[3,4]cyclopenta[1,2-c]pyrazol-1-yl)acetamido)-2-(3,5-difluorophenyl)ethyl)-2-(4-(pyridin-4-yl)piperazin-1-yl)thiazolo[4,5-b]pyridin-6-yl)-2-fluorobenzamide]	114 nM
NC(=O)c1cc(-c2cc3sc(N4C[C@@H]5C[C@H]4CN5C4COC4)nc3nc2[C@H](Cc2cc(F)cc(F)c2)NC(=O)Cn2nc(C(F)(F)F)c3c2C(F)(F)[C@@H]2C[C@H]32)ccc1F [Compound 27, 5-(5-((S)-1-(2-((3bS,4aR)-5,5-difluoro-3-(trifluoromethyl)-3b,4,4a,5-tetrahydro-1H-cyclopropa[3,4]cyclopenta[1,2-c]pyrazol-1-yl)acetamido)-2-(3,5-difluorophenyl)ethyl)-2-((1S,4S)-5-(oxetan-3-yl)-2,5-diazabicyclo[2.2.1]heptan-2-yl)thiazolo[4,5-b]pyridin-6-yl)-2-fluorobenzamide]	52.3 nM
C[Si](C)(C)CCn1ccnc1-c1ccc(N2CCN(c3nc4nc([C@H](Cc5cc(F)cc(F)c5)NC(=O)Cn5nc(C(F)(F)F)c6c5C(F)(F)[C@@H]5C[C@H]65)c(-c5ccc(F)c(C(N)=O)c5)cc4s3)CC2)cc1 [Compound 28-2, 5-(5-((S)-1-(2-((3bS,4aR)-5,5-difluoro-3-(trifluoromethyl)-3b,4,4a,5-tetrahydro-1H-cyclopropa[3,4]cyclopenta[1,2-c]pyrazol-1-yl)acetamido)-2-(3,5-difluorophenyl)ethyl)-2-(4-(4-(1-(2-(trimethylsilyl)ethyl)-1H-imidazol-2-yl)phenyl)piperazin-1-yl)thiazolo[4,5-b]pyridin-6-yl)-2-fluorobenzamide]	≥ 53200 nM
NC(=O)c1cc(-c2cc3sc(N4CCC5(CC4)CNC(=O)O5)nc3nc2[C@H](Cc2cc(F)cc(F)c2)NC(=O)Cn2nc(C(F)(F)F)c3c2C(F)(F)[C@@H]2C[C@H]32)ccc1F [Compound 29, 5-(5-((S)-1-(2-((3bS,4aR)-5,5-difluoro-3-(trifluoromethyl)-3b,4,4a,5-tetrahydro-1H-cyclopropa[3,4]cyclopenta[1,2-c]pyrazol-1-yl)acetamido)-2-(3,5-difluorophenyl)ethyl)-2-(2-oxo-1-oxa-3,8-diazaspiro[4.5]decan-8-yl)thiazolo[4,5-b]pyridin-6-yl)-2-fluorobenzamide]	121 nM
CC1CN(c2nc3nc([C@H](Cc4cc(F)cc(F)c4)NC(=O)Cn4nc(C(F)(F)F)c5c4C(F)(F)[C@@H]4C[C@H]54)c(-c4ccc(F)c(C(N)=O)c4)cc3s2)CC(C)N1C1COC1 (stereo partly drawn) [Compound 30, 5-(5-((S)-1-(2-((3bS,4aR)-5,5-difluoro-3-(trifluoromethyl)-3b,4,4a,5-tetrahydro-1H-cyclopropa[3,4]cyclopenta[1,2-c]pyrazol-1-yl)acetamido)-2-(3,5-difluorophenyl)ethyl)-2-(3,5-dimethyl-4-(oxetan-3-yl)piperazin-1-yl)thiazolo[4,5-b]pyridin-6-yl)-2-fluorobenzamide]	47.3 nM
NC(=O)c1cc(-c2cc3sc(N4CCn5cnnc5C4)nc3nc2[C@H](Cc2cc(F)cc(F)c2)NC(=O)Cn2nc(C(F)(F)F)c3c2C(F)(F)[C@@H]2C[C@H]32)ccc1F [Compound 31, 5-(5-((S)-1-(2-((3bS,4aR)-5,5-difluoro-3-(trifluoromethyl)-3b,4,4a,5-tetrahydro-1H-cyclopropa[3,4]cyclopenta[1,2-c]pyrazol-1-yl)acetamido)-2-(3,5-difluorophenyl)ethyl)-2-(5,6-dihydro-[1,2,4]triazolo[4,3-a]pyrazin-7(8H)-yl)thiazolo[4,5-b]pyridin-6-yl)-2-fluorobenzamide]	466 nM
CC1(O)CN(c2nc3nc([C@H](Cc4cc(F)cc(F)c4)NC(=O)Cn4nc(C(F)(F)F)c5c4C(F)(F)[C@@H]4C[C@H]54)c(-c4ccc(F)c(C(N)=O)c4)cc3s2)C1 [Compound 32, 5-(5-((S)-1-(2-((3bS,4aR)-5,5-difluoro-3-(trifluoromethyl)-3b,4,4a,5-tetrahydro-1H-cyclopropa[3,4]cyclopenta[1,2-c]pyrazol-1-yl)acetamido)-2-(3,5-difluorophenyl)ethyl)-2-(3-hydroxy-3-methylazetidin-1-yl)thiazolo[4,5-b]pyridin-6-yl)-2-fluorobenzamide]	60.6 nM
NC(=O)c1cc(-c2cc3sc(N4CCNC(=O)C4)nc3nc2[C@H](Cc2cc(F)cc(F)c2)NC(=O)Cn2nc(C(F)(F)F)c3c2C(F)(F)[C@@H]2C[C@H]32)ccc1F [Compound 33, 5-(5-((S)-1-(2-((3bS,4aR)-5,5-difluoro-3-(trifluoromethyl)-3b,4,4a,5-tetrahydro-1H-cyclopropa[3,4]cyclopenta[1,2-c]pyrazol-1-yl)acetamido)-2-(3,5-difluorophenyl)ethyl)-2-(3-oxopiperazin-1-yl)thiazolo[4,5-b]pyridin-6-yl)-2-fluorobenzamide]	88.3 nM

Next, values leading:

EC50	Compound
1930 nM	O=C(Cn1nc(C(F)F)c2c1C(F)(F)[C@@H]1C[C@H]21)N[C@@H](Cc1cc(F)cc(F)c1)c1ccc2sc(-c3ccc4c(c3)C(=O)NC4)nc2n1 [Compound 23-1, 2-((3bS,4aR)-3-(difluoromethyl)-5,5-difluoro-3b,4,4a,5-tetrahydro-1H-cyclopropa[3,4]cyclopenta[1,2-c]pyrazol-1-yl)-N—((S)-2-(3,5-difluorophenyl)-1-(2-(3-oxoisoindolin-5-yl)thiazolo[4,5-b]pyridin-5-yl)ethyl)acetamide]
984 nM	CSc1nc2nc([C@H](Cc3cc(F)cc(F)c3)NC(=O)Cn3nc(C(F)F)c4c3C(F)(F)[C@@H]3C[C@H]43)c(-c3ccc4c(c3)C(=O)NC4)cc2s1 [Compound 23-2, 2-((3bS,4aR)-3-(difluoromethyl)-5,5-difluoro-3b,4,4a,5-tetrahydro-1H-cyclopropa[3,4]cyclopenta[1,2-c]pyrazol-1-yl)-N—((S)-2-(3,5-difluorophenyl)-1-(2-(methylthio)-6-(3-oxoisoindolin-5-yl)thiazolo[4,5-b]pyridin-5-yl)ethyl)acetamide]
300 nM	NC(=O)c1cc(-c2cc3sc(N4CCN(c5ccc(-c6ncc[nH]6)cc5)CC4)nc3nc2[C@H](Cc2cc(F)cc(F)c2)NC(=O)Cn2nc(C(F)(F)F)c3c2C(F)(F)[C@@H]2C[C@H]32)ccc1F [Compound 28-1, 5-(2-(4-(4-(1H-imidazol-2-yl)phenyl)piperazin-1-yl)-5-((S)-1-(2-((3bS,4aR)-5,5-difluoro-3-(trifluoromethyl)-3b,4,4a,5-tetrahydro-1H-cyclopropa[3,4]cyclopenta[1,2-c]pyrazol-1-yl)acetamido)-2-(3,5-difluorophenyl)ethyl)thiazolo[4,5-b]pyridin-6-yl)-2-fluorobenzamide]
